Assay results: ChEMBL document CHEMBL3421588, “Discovery of novel indirubin-3'-monoxime derivatives as potent inhibitors against CDK2 and CDK9” (Bioorg Med Chem Lett, 2015)
The source made the active and inactive calls. The rule behind the calls is not given here.

How the values were obtained:
[1] = target: Cyclin-dependent kinase 2/cyclin E1 (Homo sapiens, UniProt P24941); experiment: Inhibition of against CDK2/cyclinE1 (unknown origin) using Ulight-CFFKNIVTPRTPPPSQGK-amide substrate and ATP incubated for 15 mins by fluorescence based assay; format: protein-complex assay
[2] = Cytotoxicity against human […] cells assessed as inhibition of cell growth by MTT assay; format: functional, cell-based
[3] = Cytotoxicity against human BGC823 cells assessed as inhibition of cell growth by MTT assay; format: functional, cell-based, BGC-823
HepG2 = experiment: Cytotoxicity against human HepG2 cells assessed as inhibition of cell growth by MTT assay; format: functional, cell-based
[4] = target: CDK9/cyclin T1 (Homo sapiens) (UniProt O60563+P50750); experiment: Inhibition of against CDK9/cyclinT1 (unknown origin) at 10 uM using Ulight-CFFKNIVTPRTPPPSQGK-amide substrate and ATP incubated for 90 mins by fluorescence based assay; format: protein-complex assay
A2780 = experiment: Cytotoxicity against human A2780 cells assessed as inhibition of cell growth by MTT assay; format: functional, cell-based
CDK9/cyclin T1 = CDK9/cyclin T1 (Homo sapiens, UniProt P50750); experiment: Inhibition of against CDK9/cyclinT1 (unknown origin) using Ulight-CFFKNIVTPRTPPPSQGK-amide substrate and ATP incubated for 90 mins by fluorescence based assay; format: protein-complex assay
Sequence of CDK9/cyclin T1 (O60563 whole entry): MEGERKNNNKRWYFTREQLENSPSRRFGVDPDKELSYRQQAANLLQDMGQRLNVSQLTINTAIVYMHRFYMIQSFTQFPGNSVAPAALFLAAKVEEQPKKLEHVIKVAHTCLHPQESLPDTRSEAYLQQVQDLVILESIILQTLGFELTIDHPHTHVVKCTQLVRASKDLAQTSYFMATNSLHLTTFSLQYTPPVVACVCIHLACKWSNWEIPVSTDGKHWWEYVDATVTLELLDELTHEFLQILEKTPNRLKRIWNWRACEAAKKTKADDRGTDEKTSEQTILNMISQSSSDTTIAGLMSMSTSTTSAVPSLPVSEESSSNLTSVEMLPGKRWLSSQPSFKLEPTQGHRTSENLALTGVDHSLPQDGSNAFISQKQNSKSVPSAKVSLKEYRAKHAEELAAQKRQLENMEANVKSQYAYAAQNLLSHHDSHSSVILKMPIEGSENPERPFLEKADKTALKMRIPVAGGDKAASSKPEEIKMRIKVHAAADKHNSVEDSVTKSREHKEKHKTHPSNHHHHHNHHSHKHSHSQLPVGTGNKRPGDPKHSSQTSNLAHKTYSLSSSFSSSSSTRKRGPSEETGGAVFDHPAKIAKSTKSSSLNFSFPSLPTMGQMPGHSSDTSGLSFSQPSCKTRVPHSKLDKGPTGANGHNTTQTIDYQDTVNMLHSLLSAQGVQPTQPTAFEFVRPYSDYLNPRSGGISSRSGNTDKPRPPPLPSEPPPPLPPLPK
Sequence of CDK9/cyclin T1 (P50750 whole entry): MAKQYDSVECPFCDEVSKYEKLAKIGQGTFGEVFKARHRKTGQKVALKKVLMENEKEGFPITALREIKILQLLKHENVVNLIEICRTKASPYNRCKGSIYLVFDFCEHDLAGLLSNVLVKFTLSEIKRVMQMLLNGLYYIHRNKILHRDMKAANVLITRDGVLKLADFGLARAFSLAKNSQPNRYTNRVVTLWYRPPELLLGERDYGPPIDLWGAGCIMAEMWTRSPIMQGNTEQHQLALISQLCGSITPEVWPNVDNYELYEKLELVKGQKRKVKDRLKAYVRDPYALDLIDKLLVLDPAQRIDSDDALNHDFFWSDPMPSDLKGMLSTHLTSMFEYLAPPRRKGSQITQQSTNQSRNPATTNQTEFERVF

[5] = Cytotoxicity against human HCT116 cells assessed as inhibition of cell growth by MTT assay; format: functional, cell-based, HCT-116
BGC-823 = experiment: Cytotoxicity against human BGC823 cells assessed as inhibition of cell growth at 10 uM by MTT assay; format: functional, cell-based
Homo sapiens = species on record: Homo sapiens; experiment: Selectivity index, ratio of IC50 for CDK2/cyclinE1 (unknown origin) to IC50 for CDK9/cyclinT1 (unknown origin)
[6] = Homo sapiens, BGC-823, read-out: IC50
[7] = Homo sapiens, HepG2, read-out: IC50
[8] = Homo sapiens, A2780, read-out: IC50
[9] = Homo sapiens, HCT-116, read-out: IC50

Question: Which IC50 [1] does the source give for `O=C1Nc2ccc(F)cc2/C1=C1/Nc2cc(F)c(F)cc2/C1=N\O` here?
Answer: 2.7 µM

Question: And the IC50 ([2]; Homo sapiens, read-out: IC50)?
Answer: 2.72 µM

Question: What about the IC50 [3, 6] of the same molecule?
Answer: 9.65 µM

Question: What about the IC50 (HepG2; [7]) of the same molecule?
Answer: 2.68 µM

Question: What about the inhibition [4] of the same molecule?
Answer: 85%

Question: What about the IC50 (A2780; [8]) of the same molecule?
Answer: 2.37 µM

Question: What about the IC50 (CDK9/cyclin T1) of the same molecule?
Answer: 1.7 µM

Question: And the IC50 [5, 9]?
Answer: 0.94 µM

Question: Which IC50 ([2]; Homo sapiens, read-out: IC50) does the source give for `CN1C(=O)/C(=C2\Nc3cc(F)c(F)cc3\C2=N/O)c2ccccc21` here?
Answer: 2.77 µM

Question: What about the IC50 [3, 6] of the same molecule?
Answer: 9.2 µM

Question: What about the IC50 (HepG2; [7]) of the same molecule?
Answer: 2.54 µM

Question: And the inhibition [4]?
Answer: 52%

Question: What about the IC50 (A2780; [8]) of the same molecule?
Answer: 4.03 µM

Question: What about the IC50 [5, 9] of the same molecule?
Answer: 2.22 µM

Question: Which IC50 [1] does the source give for `O=C1Nc2ccc([N+](=O)[O-])cc2/C1=C1/Nc2cc(F)c(F)cc2/C1=N\O` here?
Answer: 1 µM

Question: What about the IC50 ([2]; Homo sapiens, read-out: IC50) of the same molecule?
Answer: 2.21 µM

Question: And the IC50 [3, 6]?
Answer: 6.14 µM

Question: And the IC50 (HepG2; [7])?
Answer: 2.45 µM

Question: What about the inhibition [4] of the same molecule?
Answer: 89%

Question: And the IC50 (A2780; [8])?
Answer: 2.22 µM

Question: What about the IC50 (CDK9/cyclin T1) of the same molecule?
Answer: 0.7 µM

Question: And the IC50 [5, 9]?
Answer: 2.16 µM

Question: With `CO/N=C1/C(=C2/C(=O)Nc3ccc(F)cc32)Nc2cc(F)c(F)cc21` as the molecule, how does the IC50 [2] read?
Answer: Not Active

Question: And the IC50 ([3]; bgc-823)?
Answer: Not Active

Question: What about the IC50 (HepG2; hepg2) of the same molecule?
Answer: Not Active

Question: And the inhibition [4]?
Answer: < 30%

Question: What about the IC50 (A2780; a2780) of the same molecule?
Answer: Not Active

Question: What about the IC50 ([5]; hct-116) of the same molecule?
Answer: Not Active

Question: For `O=C1Nc2ccc(F)cc2/C1=C1/Nc2ccc(OC(F)(F)F)cc2/C1=N\O`, which IC50 [2] is on record?
Answer: Not Active

Question: And the IC50 ([3]; bgc-823)?
Answer: Not Active

Question: What about the IC50 (HepG2; hepg2) of the same molecule?
Answer: Not Active

Question: And the inhibition [4]?
Answer: < 30%

Question: What about the IC50 (A2780; a2780) of the same molecule?
Answer: Not Active

Question: What about the IC50 ([5]; hct-116) of the same molecule?
Answer: Not Active

Question: Which IC50 [1] does the source give for `O=Nc1c(-c2c(O)[nH]c3ccccc23)[nH]c2ccccc12` [INDIRUBIN-3-MONOXIME] here?
Answer: 0.7 µM

Question: What about the inhibition [4] of the same molecule?
Answer: 70%

Question: And the IC50 (CDK9/cyclin T1)?
Answer: 2.4 µM

Question: For `O=C1Nc2ccccc2/C1=C1/Nc2cc(F)c(F)cc2/C1=N\O`, which IC50 ([2]; Homo sapiens, read-out: IC50) is on record?
Answer: 3.04 µM

Question: And the IC50 [3, 6]?
Answer: 6.45 µM

Question: And the IC50 (HepG2; [7])?
Answer: 1.91 µM

Question: What about the inhibition [4] of the same molecule?
Answer: 67%

Question: And the IC50 (A2780; [8])?
Answer: 2.5 µM

Question: And the IC50 [5, 9]?
Answer: 2.32 µM

Question: What does the source list for `CO/N=C1/C(=C2/C(=O)Nc3ccc([N+](=O)[O-])cc32)Nc2cc(F)c(F)cc21`?
Answer: IC50 [2]: Not Active; IC50 ([3]; bgc-823): Not Active; IC50 (HepG2; hepg2): Not Active; inhibition [4]: < 30%; IC50 (A2780; a2780): Not Active; IC50 ([5]; hct-116): Not Active

Question: Which IC50 ([2]; Homo sapiens, read-out: IC50) does the source give for `Nc1ccc2c(c1)/C(=C1/Nc3cc(F)c(F)cc3/C1=N\O)C(=O)N2` here?
Answer: 2.54 µM

Question: And the “growth inhibition (GI)” value (BGC-823)?
Answer: inactive

Question: What about the IC50 (HepG2; [7]) of the same molecule?
Answer: 5.62 µM

Question: What about the inhibition [4] of the same molecule?
Answer: 60%

Question: What about the IC50 (A2780; [8]) of the same molecule?
Answer: 2.26 µM

Question: What about the IC50 [5, 9] of the same molecule?
Answer: 5.82 µM

Question: Which results are given for `O=C1Nc2c(cccc2C(F)(F)F)/C1=C1/Nc2cc(F)c(F)cc2/C1=N\O`?
Answer: IC50 [2]: Not Active; IC50 ([3]; bgc-823): Not Active; IC50 (HepG2; hepg2): Not Active; inhibition [4]: < 30%; IC50 (A2780; a2780): Not Active; IC50 ([5]; hct-116): Not Active

Question: What does the source list for `O=C1Nc2c(Cl)cc(Cl)cc2/C1=C1/Nc2cc(F)c(F)cc2/C1=N\O`?
Answer: IC50 [2]: Not Active; IC50 ([3]; bgc-823): Not Active; IC50 (HepG2; hepg2): Not Active; inhibition [4]: < 30%; IC50 (A2780; a2780): Not Active; IC50 ([5]; hct-116): Not Active

Question: With `O=C1Nc2ccc([N+](=O)[O-])cc2/C1=C1/Nc2ccc(OC(F)(F)F)cc2/C1=N\O` as the molecule, how does the IC50 [2] read?
Answer: Not Active

Question: What about the IC50 ([3]; bgc-823) of the same molecule?
Answer: Not Active

Question: And the IC50 (HepG2; hepg2)?
Answer: Not Active

Question: What about the inhibition [4] of the same molecule?
Answer: < 30%

Question: And the IC50 (A2780; a2780)?
Answer: Not Active

Question: And the IC50 ([5]; hct-116)?
Answer: Not Active

Question: For `COc1ccc2c(c1)/C(=C1/Nc3cc(F)c(F)cc3/C1=N\O)C(=O)N2`, which IC50 [1] is on record?
Answer: 1.1 µM

Question: What about the inhibition [4] of the same molecule?
Answer: 81%

Question: What about the IC50 (CDK9/cyclin T1) of the same molecule?
Answer: 1.9 µM

Question: Which inhibition [4] does the source give for `Cc1ccc2c(c1)/C(=C1/Nc3cc(F)c(F)cc3/C1=N\O)C(=O)N2` here?
Answer: 65%

Question: Which IC50 [1] does the source give for `O=C1Nc2ccc(OC(F)(F)F)cc2/C1=C1/Nc2cc(F)c(F)cc2/C1=N\O` here?
Answer: 4.1 µM

Question: And the inhibition [4]?
Answer: 74%

Question: What about the IC50 (CDK9/cyclin T1) of the same molecule?
Answer: 5.6 µM

Question: For `O=C1Nc2cc(Cl)ccc2/C1=C1/Nc2cc(F)c(F)cc2/C1=N\O`, which inhibition [4] is on record?
Answer: 59%

Question: Which IC50 [1] does the source give for `O=C1Nc2ccc(Cl)cc2/C1=C1/Nc2cc(F)c(F)cc2/C1=N\O` here?
Answer: 6.4 µM

Question: And the Ratio IC50 (Homo sapiens)?
Answer: 15

Question: And the inhibition [4]?
Answer: 86%

Question: What about the IC50 (CDK9/cyclin T1) of the same molecule?
Answer: 0.4 µM

Question: With `O=C1Nc2c(Cl)cccc2/C1=C1/Nc2cc(F)c(F)cc2/C1=N\O` as the molecule, how does the IC50 [2] read?
Answer: Not Active

Question: And the IC50 ([3]; bgc-823)?
Answer: Not Active

Question: And the IC50 (HepG2; hepg2)?
Answer: Not Active

Question: And the inhibition [4]?
Answer: < 30%

Question: And the IC50 (A2780; a2780)?
Answer: Not Active

Question: What about the IC50 ([5]; hct-116) of the same molecule?
Answer: Not Active

Question: Which IC50 [2] does the source give for `COc1ccc2c(c1)/C(=C1/Nc3ccc(OC(F)(F)F)cc3/C1=N\O)C(=O)N2` here?
Answer: Not Active

Question: What about the IC50 ([3]; bgc-823) of the same molecule?
Answer: Not Active

Question: What about the IC50 (HepG2; hepg2) of the same molecule?
Answer: Not Active

Question: What about the inhibition [4] of the same molecule?
Answer: < 30%

Question: And the IC50 (A2780; a2780)?
Answer: Not Active

Question: What about the IC50 ([5]; hct-116) of the same molecule?
Answer: Not Active

Question: Which IC50 [1] does the source give for `COc1ccc2c(c1)/C(=C1/Nc3cc(F)c(F)cc3/C1=N\OCCO)C(=O)N2` here?
Answer: 0.4 µM

Question: And the inhibition [4]?
Answer: 84%

Question: And the IC50 (CDK9/cyclin T1)?
Answer: 0.3 µM
